Measurements reported in publication PMC3763901 (Bioorganic & medicinal chemistry letters, 2012).

How the values were obtained:
[1] = biological target: T1, stromelysin-1 catalytic domain (SCD) (Homo sapiens, UniProt P08254); details: in Tris–HCl, not corrected for proton transfer; cited from earlier work
[2] = biological target: T1, stromelysin-1 catalytic domain (SCD); experiment: Isothermal titration calorimetry of ligand binding

T1 sequence (P08254 100-272 limits assumed, species assumed): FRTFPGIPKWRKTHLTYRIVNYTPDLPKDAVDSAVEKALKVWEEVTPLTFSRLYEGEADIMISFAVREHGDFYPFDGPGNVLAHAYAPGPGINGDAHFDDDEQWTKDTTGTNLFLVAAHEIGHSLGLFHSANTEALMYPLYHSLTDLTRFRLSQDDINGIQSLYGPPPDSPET

Q: Which ΔHobs [1] does the source give for `Oc1ccccc1` [phenol] here?
A: -4.7 kcal/mol

Q: Which “ΔG^0” value ([2]; ITC, pH 7.5, 3% DMSO) does the source give for `CC(=O)NO` [Compound 8, acetohydroxamic acid] here?
A: -2.4 ± 0.3 kcal/mol

Q: What about the ΔHbind0 ([2]; ITC, pH 7.5, 3% DMSO, corrected for proton transfer) of the same compound?
A: -2.3 ± 0.2 kcal/mol

Q: What about the ΔCP ([2]; from titrations at 15, 25 and 37 °C, by regression) of the same compound?
A: −67 ± 24 cal mol^−1 K^−1
